According to the NIST ThermoML archive (doi:10.1016/j.fluid.2010.01.020):

Assays:
[1] = Crystal
[2] = Molar enthalpy of transition or fusion; settings: Crystal; DSC
[3] = xn = mol fraction of the nth substance listed; settings: 101 kPa, Liquid, Vibrating tube method

CCn1cc[n+](C)c1.Cc1ccc(S(=O)(=O)[O-])cc1 [1-ethyl-3-methylimidazolium 4-methylbenzenesulfonate]
[1]
Settings	Normal melting temperature [°C]
DTA	49.2
Solid-Liquid Equilibrium	53.5

Settings	Molar enthalpy of transition or fusion [kcal/mol]
[2]	4.9

CCn1cc[n+](C)c1.N#C[S-] [1-ethyl-3-methylimidazolium thiocyanate] + O
mass density [kg/m3], [3]
Settings	298.15 K	308.15 K	318.15 K	328.15 K	338.15 K	348.15 K
x1 = 0.0248	1016	1010.56	1005.23	1000.09	994.12	987.53
x1 = 0.0635	1036.86	1031.47	1025.75	1019.71	1013.39	1006.75
x1 = 0.1377	1062.14	1056.21	1049.96	1043.71	1036.7	1030.27
x1 = 0.2145	1077.88	1071.45	1064.98	1058.44	1051.85	1045.17
x1 = 0.3381	1092.51	1086.08	1079.64	1073.2	1066.76	1060.28
x1 = 0.4198	1098.72	1092.33	1085.98	1079.65	1073.3	1066.97
x1 = 0.5599	1105.92	1099.59	1093.4	1087.19	1081	1074.85
x1 = 0.6524	1109.2	1102.99	1096.81	1090.66	1084.56	1078.47
x1 = 0.7369	1111.59	1105.42	1099.15	1093.24	1087.14	1081.08
x1 = 0.8256	1113.68	1107.51	1101.41	1095.36	1089.34	1083.37
x1 = 0.9263	1115.64	1109.54	1103.5	1097.51	1091.43	1085.62
x1 = 1	1116.84	1110.73	1104.67	1098.69	1092.73	1086.83

O [water] + CCn1cc[n+](C)c1.N#C[S-]
[3], x2 = 0
Settings	mass density [kg/m3]
308.15 K	992.03
318.15 K	987.02
328.15 K	981.69
338.15 K	977.03
348.15 K	971.75
